Assay results: patent US7888347B2, “Pyrazolo [3,4-D]azepine derivatives as histamine H3 antagonists” (Glaxo Group Limited, priority 2005, dated 2011)

Target: T1, histamine H3 receptor (Homo sapiens, UniProt Q9Y5N1)
T1 construct: expressed in transfected cells; host or cells: CHO K1 cells (pSwitch/pGene GeneSwitch system, mifepristone-induced), clone 3H3; membrane preparation
Assay: Histamine H3 functional antagonist assay ([35S]-GTPγS SPA on membranes)
Format: biochemical
Settings: hydrochloride salts tested; membrane prepared from cultured H3 cells; averages of a number of experiments; read-out: functional pKi (fpKi), histamine H3 functional antagonism (converted)
Text: A membrane preparation containing histamine H3 receptors may be prepared in accordance with the following procedures:
(i) Generation of Histamine H3 Cell Line
DNA encoding the human histamine H3 gene (Huvar, A. et al. (1999) Mol. Pharmacol. 55(6), 1101-1107) was cloned into a holding vector, pCDNA3.1 TOPO (InVitrogen) and its cDNA was isolated from this vector by restriction digestion of plasmid DNA with the enzymes BamH1 and Not-1 and ligated into the inducible expression vector pGene (InVitrogen) digested with the same enzymes. The GeneSwitch™ system (a system where in transgene expression is switched off in the absence of an inducer and switched on in the presence of an inducer) was performed as described in U.S. Pat. Nos. 5,364,791; 5,874,534; and 5,935,934. Ligated DNA was transformed into competent DH5α E. coli host bacterial cells and plated onto Luria Broth (LB) agar containing Zeocin™ (an antibiotic which allows the selection of cells expressing the sh ble gene which is present on pGene and pSwitch) at 50 μg ml^−1. Colonies containing the re-ligated plasmid were identified by restriction analysis. DNA for transfection into mammalian cells was prepared from 250 ml cultures of the host bacterium containing the pGeneH3 plasmid and isolated using a DNA preparation kit (Qiagen Midi-Prep) as per manufacturers guidelines (Qiagen).
CHO K1 cells previously transfected with the pSwitch regulatory plasmid (InVitrogen) were seeded at 2×10e6 cells per T75 flask in Complete Medium, containing Hams F12 (GIBCOBRL, Life Technologies) medium supplemented with 10% v/v dialysed foetal bovine serum, L-glutamine, and hygromycin (100 μg ml^−1), 24 hours prior to use. Plasmid DNA was transfected into the cells using Lipofectamine plus according to the manufacturers guidelines (InVitrogen). 48 hours post transfection cells were placed into complete medium supplemented with 500 μg ml^−1 Zeocin™.
10-14 days post selection 10 nM Mifepristone (InVitrogen), was added to the culture medium to induce the expression of the receptor. 18 hours post induction cells were detached from the flask using ethylenediamine tetra-acetic acid (EDTA; 1:5000; InVitrogen), following several washes with phosphate buffered saline pH 7.4 and resuspended in Sorting Medium containing Minimum Essential Medium (MEM), without phenol red, and supplemented with Earles salts and 3% Foetal Clone II (Hyclone). Approximately 1×10e7 cells were examined for receptor expression by staining with a rabbit polyclonal antibody, 4a, raised against the N-terminal domain of the histamine H3 receptor, incubated on ice for 60 minutes, followed by two washes in sorting medium. Receptor bound antibody was detected by incubation of the cells for 60 minutes on ice with a goat anti rabbit antibody, conjugated with Alexa 488 fluorescence marker (Molecular Probes). Following two further washes with Sorting Medium, cells were filtered through a 50 μm Filcon™ (BD Biosciences) and then analysed on a FACS Vantage SE Flow Cytometer fitted with an Automatic Cell Deposition Unit. Control cells were non-induced cells treated in a similar manner. Positively stained cells were sorted as single cells into 96-well plates, containing Complete Medium containing 500 μg ml^−1 Zeocin™ and allowed to expand before reanalysis for receptor expression via antibody and ligand binding studies. One clone, 3H3, was selected for membrane preparation.
(ii) Membrane Preparation from Cultured Cells
All steps of the protocol are carried out at 4° C. and with pre-cooled reagents. The cell pellet is resuspended in 10 volumes of homogenisation buffer (50 mM N-2-hydroxyethylpiperazine-N′-2-ethanesulfonic acid (HEPES), 1 mM ethylenediamine tetra-acetic acid (EDTA), pH 7.4 with KOH), supplemented with 10e-4M leupeptin (acetyl-leucyl-leucyl-arginal; Sigma L2884), 25 μg/ml bacitracin (Sigma B0125), 1 mM phenylmethylsulfonyl fluoride (PMSF) and 2×10e-6M pepstatin A (Sigma). […]

T1 sequence (Q9Y5N1 whole entry): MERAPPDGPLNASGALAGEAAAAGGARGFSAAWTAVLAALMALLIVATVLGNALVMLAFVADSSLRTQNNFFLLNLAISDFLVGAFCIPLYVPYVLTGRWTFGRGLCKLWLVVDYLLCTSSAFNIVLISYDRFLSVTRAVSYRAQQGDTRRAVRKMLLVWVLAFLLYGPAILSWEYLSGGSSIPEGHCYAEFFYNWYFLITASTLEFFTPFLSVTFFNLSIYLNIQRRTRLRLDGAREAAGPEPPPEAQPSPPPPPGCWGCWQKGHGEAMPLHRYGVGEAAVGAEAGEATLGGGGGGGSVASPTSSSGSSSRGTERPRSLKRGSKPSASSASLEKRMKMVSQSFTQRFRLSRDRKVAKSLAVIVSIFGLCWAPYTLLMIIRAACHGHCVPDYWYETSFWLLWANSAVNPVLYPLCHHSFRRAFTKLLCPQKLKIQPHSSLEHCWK

| Ki | Structure (SMILES) |
| --- | --- |
| < 1 nM | O=C1CCCN1c1ccc(-n2cc3c(n2)CCN(C2CCCC2)CC3)cc1 [Example E24, 1-[4-(6-Cyclopentyl-5,6,7,8-tetrahydropyrazolo[3,4-d]azepin-2(4H)-yl)phenyl]-2-pyrrolidinone] |
| < 0.316 nM | O=C1CCCN1c1ccc(-n2cc3c(n2)CCN(C2CCC2)CC3)cc1 [Example E13] |
| < 1 nM | CC(C)N1CCc2cn(-c3ccc(N4CCOC4=O)cc3)nc2CC1 [Example E9, 3-{4-[6-(1-Methylethyl)-5,6,7,8-tetrahydropyrazolo[3,4-d]azepin-2(4H)-yl]phenyl}-1,3-oxazolidin-2-one] |
| < 0.316 nM | CCN1CCc2cn(-c3ccc(N4CCCC4=O)cc3)nc2CC1 [Example E18, 1-[4-(6-Ethyl-5,6,7,8-tetrahydropyrazolo[3,4-d]azepin-2(4H)-yl)phenyl]-2-pyrrolidinone] |
| < 1 nM | CC(C)N1CCc2cn(-c3ccc(N4CCN(C)C4=O)cc3)nc2CC1 [Example E10, 1-Methyl-3-{4-[6-(1-methylethyl)-5,6,7,8-tetrahydropyrazolo[3,4-d]azepin-2(4H)-yl]phenyl}-2-imidazolidinone] |
| < 0.316 nM | CN1CCN(c2ccc(-n3cc4c(n3)CCN(C3CCC3)CC4)cc2)C1=O [Example E36] |
| < 1 nM | CC(C)CN1CCc2cn(-c3ccc(N4CCOC4=O)cc3)nc2CC1 [Example E42] |
| < 1 nM | CC(C)N1CCc2cn(-c3ccc(N4CCCC4=O)cc3)nc2CC1 [Example E14, 1-{4-[6-(1-Methylethyl)-5,6,7,8-tetrahydropyrazolo[3,4-d]azepin-2(4H)-yl]phenyl}-2-pyrrolidinone] |
| < 1 nM | CC(C)CN1CCc2cn(-c3ccc(N4CCCC4=O)cc3)nc2CC1 [Example E20] |

More lines, now with the values behind:

| Structure (SMILES) | Ki |
| --- | --- |
| Cc1noc(-c2ccc(-n3cc4c(n3)CCN(C3CCC3)CC4)cc2)n1 [Example E25, 6-Cyclobutyl-2-[4-(3-methyl-1,2,4-oxadiazol-5-yl)phenyl]-2,4,5,6,7,8-hexahydropyrazolo[3,4-d]azepine] | < 1 nM |
| Cc1noc(-c2ccc(-n3cc4c(n3)CCN(C3CCCC3)CC4)cc2)n1 [Example E27, 6-Cyclopentyl-2-[4-(3-methyl-1,2,4-oxadiazol-5-yl)phenyl]-2,4,5,6,7,8-hexahydropyrazolo[3,4-d]azepine] | < 1 nM |
| O=C1OCCN1c1ccc(-n2cc3c(n2)CCN(C2CCCC2)CC3)cc1 [Example E30] | < 1 nM |
| O=C1CCCN1c1ccc(-n2cc3c(n2)CCN(C2CCC2)CC3)cn1 [Example E12, 1-[5-(6-Cyclobutyl-5,6,7,8-tetrahydropyrazolo[3,4-d]azepin-2(4H)-y)-2-pyridinyl]-2-pyrrolidinone] | < 1 nM |
| Cc1noc(-c2ccc(-n3cc4c(n3)CCN(C(C)C)CC4)cc2)n1 [Example E15, 6-(1-Methylethyl)-2-[4-(3-methyl-1,2,4-oxadiazol-5-yl)phenyl]-2,4,5,6,7,8-hexahydropyrazolo[3,4-d]azepine] | < 1 nM |
| CN1CCN(c2ccc(-n3cc4c(n3)CCN(C3CCCC3)CC4)cc2)C1=O [Example E31] | < 1 nM |
| c1cc(-n2cc3c(n2)CCN(C2CCC2)CC3)ccc1N1CCOCC1 [Example E39, 6-Cyclobutyl-2-[4-(4-morpholinyl)phenyl]-2,4,5,6,7,8-hexahydropyrazolo[3,4-d]azepine] | < 1 nM |
| Cc1ccc(N2CCC(n3cc4c(n3)CCN(C3CCC3)CC4)CC2)cn1 [Example E44, 6-Cyclobutyl-2-[1-(6-methyl-3-pyridinyl)-4-piperidinyl]-2,4,5,6,7,8-hexahydropyrazolo[3,4-d]azepine] | < 1 nM |
| O=C1OCCN1c1ccc(-n2cc3c(n2)CCN(C2CCC2)CC3)cc1 [Example E37, 3-[4-(6-Cyclobutyl-5,6,7,8-tetrahydropyrazolo[3,4-d]azepin-2(4H)-yl)phenyl]-1,3-oxazolidin-2-one] | < 0.316 nM |
